From patent US5585356A, “Matrix metalloproteinase peptides: role in diagnosis and therapy” (priority 1994, dated 1996)
Where no end group is shown, it is not given here.

Experiments:
type IV procollagenase = type IV procollagenase (Homo sapiens, UniProt P08253); conditions: 10 mM EDTA; 1 mM pAPMA, 37° C.
Method: 20 μl aliquots of A2058 melanoma cell conditioned media were activated in the presence of 1.0 mM pAPMA for the indicated times (min). The reactions were stopped by the addition of EDTA to 10 mM and the samples were electrophoresed on a 9% acrylamide gel with or without gelatin. The gelatin containing gels were developed as zymograms after electrophoresis.
Stock solutions of 0.01M p-APMA in 0.05N NaOH were prepared fresh daily. Proenzyme samples were incubated with a final concentration 0.5 or 1.0 mM p-APMA for varying times (0-16 hours) at 37° C. Following incubation, the samples were analyzed directly by NaDodSO4 -PAGE on 9% acrylamide gels containing 0.1% gelatin (gelatin zymogram). Alternatively, the samples were run on 9% NaDodSO4 -PAGE and electroblotted onto Immobilon P membranes (Millipore).

type IV collagenase = target: T1, type IV collagenase (Homo sapiens, UniProt P08253); experiment: soluble type IV collagenase assay (3H-type IV collagen degradation); format: biochemical; conditions: peptide 0.1 mM; purified activated type IV collagenase, pepsinized type IV collagen (FIG. 11)
T1 construct: endogenous in cells; host or cells: human A2058 melanoma cells
T1 sequence (P08253 110-660): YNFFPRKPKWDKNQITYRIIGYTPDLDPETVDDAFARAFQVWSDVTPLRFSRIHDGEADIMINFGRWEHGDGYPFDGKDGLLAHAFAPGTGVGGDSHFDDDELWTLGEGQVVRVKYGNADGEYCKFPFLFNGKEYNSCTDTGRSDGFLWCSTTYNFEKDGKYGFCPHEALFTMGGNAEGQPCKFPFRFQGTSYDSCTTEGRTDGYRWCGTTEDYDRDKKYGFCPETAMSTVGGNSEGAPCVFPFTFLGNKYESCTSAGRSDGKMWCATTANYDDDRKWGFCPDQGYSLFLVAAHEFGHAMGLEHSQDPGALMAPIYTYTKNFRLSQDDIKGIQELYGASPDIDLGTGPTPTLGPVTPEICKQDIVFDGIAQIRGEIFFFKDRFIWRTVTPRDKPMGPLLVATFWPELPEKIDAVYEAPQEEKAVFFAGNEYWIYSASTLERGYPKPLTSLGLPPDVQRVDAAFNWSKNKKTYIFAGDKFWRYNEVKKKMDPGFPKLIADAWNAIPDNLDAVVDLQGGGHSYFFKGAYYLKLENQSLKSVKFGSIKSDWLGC
Method: FIG. 11 illustrates the dose dependent inhibition of purified activated type IV collagenase cleavage of pepsinized type IV collagen by the designated synthetic peptides. Peptide TMRKPRCGNPDVAN at a concentration of 0.1 mM inhibits 80% of the enzyme activity.
The procedure for the collagenase assay of this example utilized the following preparation.
1. Place enzyme sample activator (usually 1 mM pAPMA) and test solution in 1.5 ml Eppendorf tube. Combined volume must equal 60 μl. Add 1× collagenase buffer, if necessary. If necessary, preincubate.
2. Prepare type Iv collagen substrate by diluting stock ^3 H-type IV collagen (NEN #NET-931 lot #2511-018) 1:120 with 1× collagenase buffer. Heat to 55° C. for 10 minutes and cool on ice.
3. Add 5 μl of diluted mH-type IV collagen solution to each assay tube. Vortex to mix and incubate at 28° C. for 4 hours.
4. At the end of the incubation period, add 2 μl of carrier BSA solution and 7 μl of TCATAP solution. Vortex mix and allow to stand on ice for at least 10 minutes.
5. Pellet the precipitate by centrifuging in the microfuge for 10 minutes with the speed set at 6. Orient the tubes when placing them in the microfuge in order that the position of the pellet will be known.
6. Immediately after centrifugation, aspirate 55 μl of the supernatant and place in a scintillation vial. Add 5 ml of scintillation cocktail, shake well and count. […]

type IV procollagenase, sequence (P08253 30-660 limits assumed): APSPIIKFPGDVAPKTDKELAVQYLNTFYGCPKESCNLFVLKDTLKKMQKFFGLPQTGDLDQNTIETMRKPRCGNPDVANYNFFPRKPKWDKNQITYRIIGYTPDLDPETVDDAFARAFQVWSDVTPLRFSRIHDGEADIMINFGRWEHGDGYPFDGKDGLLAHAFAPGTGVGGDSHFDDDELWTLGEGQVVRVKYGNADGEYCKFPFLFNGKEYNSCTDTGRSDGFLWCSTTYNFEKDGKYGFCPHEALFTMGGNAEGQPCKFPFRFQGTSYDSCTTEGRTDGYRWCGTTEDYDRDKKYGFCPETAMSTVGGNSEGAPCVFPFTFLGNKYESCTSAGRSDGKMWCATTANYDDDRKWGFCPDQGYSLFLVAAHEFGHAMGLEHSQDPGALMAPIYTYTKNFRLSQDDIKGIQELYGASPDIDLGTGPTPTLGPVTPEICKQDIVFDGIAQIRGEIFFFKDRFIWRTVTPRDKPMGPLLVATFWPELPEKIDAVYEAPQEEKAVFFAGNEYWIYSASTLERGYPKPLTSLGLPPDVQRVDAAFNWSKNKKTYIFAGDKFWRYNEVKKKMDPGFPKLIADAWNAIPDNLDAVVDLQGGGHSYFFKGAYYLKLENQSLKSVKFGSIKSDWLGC

inhibition of enzyme activity (type IV collagenase) [%] | Compound | conversion of 70 kDa band to 62 kDa form (type IV procollagenase)
 | O=C(O)CN(CCN(CC(=O)O)CC(=O)O)CC(=O)O [EDTA] | completely inhibited
80 | TMRKPRCGNPDVAN [Peptide 74, TMRKPRCGNPDVAN] | 
